Laboratory results: publication PMC10835732, “Pharmacokinetics of Hydroxytyrosol and Its Sulfate and Glucuronide Metabolites after the Oral Administration of Table Olives to Sprague-Dawley Rats” (Journal of Agricultural and Food Chemistry, 2024)
Where two headings read alike, the source gives them in different places. Marks after values point to notes of the source that are not given here.

Assays:
[1] = cited from earlier work; for share represented by hydroxytyrosol sulfates: ref Kotronoulas et al. 39
[2] = Plasma pharmacokinetics (noncompartmental analysis) after single oral administration of Arbequina table olives; format: in vivo, Sprague-Dawley rats; settings: for AUC0–∞ / Cmax/D / AUC0–∞/D / AUCt/D / Cl/F·fm (apparent clearance of metabolite) / MRT0–∞ / Vdarea/F·fm (apparent volume of distribution of metabolite, terminal phase) / Vss/F·fm (apparent steady-state volume of distribution of metabolite) / t1/2λz (apparent elimination half-life) / λz (apparent elimination rate constant) / AUCt / Cmax: geometric mean (95% CI); for Cmax/D: D = dose of hydroxytyrosol in nmol; for AUC0–∞/D / AUCt/D: D in nmol; for Tmax: median (min, max); for AUCt: time zero up to 8 h; for Cmax / percentage of the AUC of each compound divided by the AUC of the sum of all of them: plasma; for Cmax: read-out: Cmax; for half-life (t1/2λz) / mean residence time (MRT0–∞): oral table olives; for percentage of the AUC of each compound divided by the AUC of the sum of all of them: both doses (similar ratios between doses)
Protocol: The experiments were performed using Sprague–Dawley rats (n = 13) randomly divided into two groups, the 30 olives group (n = 6) that received the dose of 3.85 g/kg and the 60 olives group (n = 7), which was given the dose of 7.70 g/kg. The freshly prepared homogeneous suspensions were given to overnight fasted rats by oral gavage (18-gauge × 76 mm, ref FFSS-186-76, Instech Laboratories, Inc., Plymouth Meeting, PA). The volume of administration was 10 mL/kg. After the single administration of Arbequina table olives, blood was obtained at 30, 60, 90, 120, 240, 360, and 480 min from each animal. Samples were withdrawn from the lateral saphenous vein and placed into Microvette CB 300 K2 EDTA-K2 (Sarstedt, Granollers, Spain) coated tubes.[31] At each time point, 0.40 mL of blood was collected, meaning that a maximum of 2.4 mL was obtained from each animal. […] Blood corresponding to 480 min was taken by a cardiac puncture with the animal under terminal anesthesia. Plasma was immediately obtained by centrifugation at 1500g at 4 °C for 15 min (Centrifuge Megafuge 1.0R, Heraeus, Boadilla, Spain) and kept at −20 °C until analysis.
Hydroxytyrosol and its metabolites in plasma were determined by liquid–liquid extraction followed by LC-MS/MS analysis as previously described.[11] Briefly, 200 μL of plasma was mixed with 10 μL of freshly prepared 10% ascorbic acid followed by 10 μL of 0.5% acetic acid and 10 μL of 2-(3-hydroxyphenyl) ethanol (10 μM, I.S.). Then, 2 mL of ethyl acetate was added to the samples that were vigorously mixed in a vortex (5 min), placed into an ultrasonic bath (10 min), and centrifuged at 1500g at 4 °C (15 min) (Centrifuge Megafuge 1.0R). A second extraction of the pellet with 2 mL of ethyl acetate was carried out. Subsequently, the two pooled supernatants were evaporated to dryness, reconstituted with 100 μL of 80% methanol, placed into amber vials, and immediately analyzed by LC-MS/MS.
The plasmatic concentrations were calculated by the interpolation of the peak area ratio of hydroxytyrosol versus I.S. on a calibration curve. Calibration standards were constructed with blank plasma obtained by cardiac puncture from overnight fasted rats that had never received either table olives or hydroxytyrosol. […] Results were expressed in nmol per liter of plasma (nmol/L). The method was validated following the EMA guidelines[33] at six different concentrations ranging from 0 to 250 nmol/L analyzed on three different days.
Individual PK of hydroxytyrosol and its metabolites were estimated from the plasma concentrations versus time profiles of each animal, through a noncompartmental analysis (NCA) with Phoenix-64 (Build 8.3.4.295, Certara, Princeton, N.J., USA). All concentrations of each pharmacokinetic profile were considered for NCA because the values obtained were above the LOQ. Peak plasma concentration (Cmax) and time to peak plasma concentration (Tmax) were determined by visual inspection of the pharmacokinetic profiles. The apparent elimination rate constant (λz) was estimated from the terminal slope of the semilogarithmic concentration–time curve. The apparent elimination half-life (t1/2λz) was calculated as t1/2z = 0.693/λz. The area under the plasma concentration–time curve from time zero to the last experimental time (AUCt) with analyte concentrations above the LOQ, was calculated by the linear-log trapezoidal rule. The area from time zero to infinity (AUC0–∞) was calculated by adding to the AUCt value the extrapolated area calculated as the ratio between the predicted concentration (Ct) at the last sampling time with concentrations above the LOQ and λz. The mean residence time (MRT0–∞) was given by the ratio of the area under the first-moment curve (AUMC0–∞) to the area under the zero-moment curve (AUC0–∞). The ratio indicating the relative exposure of each metabolite with respect to hydroxytyrosol (AUC0–∞m/AUC0–∞) was also calculated for all of the metabolites. […]

[3] = 30 olives group (hydroxytyrosol 2.95 mg/kg oral), listed as hydroxytyrosol sulfate M1-b
[4] = 60 olives group (hydroxytyrosol 5.89 mg/kg oral), listed as hydroxytyrosol sulfate M1-b
[5] = both doses (30 and 60 olives groups)
[6] = 30 olives group (hydroxytyrosol 2.95 mg/kg oral), listed as hydroxytyrosol sulfate M1-a
[7] = 60 olives group (hydroxytyrosol 5.89 mg/kg oral), listed as hydroxytyrosol sulfate M1-a

Substance: hydroxytyrosol sulfate
- share in rat plasma ([1]; after phenolic extract from olive cake containing 10.35 mg/kg of hydroxytyrosol, ref Serra et al. 23): 92%
- share represented by hydroxytyrosol sulfates ([1]; oral 10 mg/kg of hydroxytyrosol to rats): 60%
- share represented by hydroxytyrosol sulfates ([1]; oral 100 mg/kg of hydroxytyrosol to rats): 75%

Substance: hydroxytyrosol sulfate [M1-b]
- AUC0–∞ ([2]; 30 olives group (3.85 g olives/kg, hydroxytyrosol 2.95 mg/kg oral), listed as hydroxytyrosol sulfate M1-b): 28084 (20399, 38664)^a min·nmol/L
- Cmax/D [2, 3]: 0.0582 (0.0343, 0.0985)^a
- AUC0–∞/D [2, 3]: 5.33 (3.89, 7.31)^a
- AUCt/D [2, 3]: 5.11 (3.78, 6.90)^a
- Cl/F·fm (apparent clearance of metabolite) [2, 3]: 0.68 (0.49, 0.94)^a L/min/kg
- MRT0–∞ [2, 3]: 141.4 (118.1, 169.3)^a min
- Vdarea/F·fm (apparent volume of distribution of metabolite, terminal phase) [2, 3]: 85.0 (57.2, 126)^a L/kg
- Vss/F·fm (apparent steady-state volume of distribution of metabolite) [2, 3]: 96.4 (62.6, 148)^a L/kg
- t1/2λz (apparent elimination half-life) [2, 3]: 86.4 (67.7, 110)^a min
- λz (apparent elimination rate constant) [2, 3]: 0.0080 (0.0063, 0.01024)^a 1/min
- Tmax [2, 3]: 30.50 (30,120)^a min
- AUCt [2, 3]: 26907 (19824, 36520)^a min·nmol/L
- Cmax ([2]; 30 olives group: single oral 3.85 g destoned olives/kg (hydroxytyrosol 2.95 mg/kg), n = 6, listed as hydroxytyrosol sulfate M1-b): 306 nM
- AUC0–∞ ([2]; 60 olives group (7.70 g olives/kg, hydroxytyrosol 5.89 mg/kg oral), listed as hydroxytyrosol sulfate M1-b): 80006 (65787, 97299)^b min·nmol/L
- Cmax/D [2, 4]: 0.0491 (0.0333, 0.0726)^a
- AUC0–∞/D [2, 4]: 7.17 (5.62, 9.14)^a
- AUCt/D [2, 4]: 6.05 (4.76, 7.70)^a
- Cl/F·fm (apparent clearance of metabolite) [2, 4]: 0.48 (0.39, 0.58)^a L/min/kg
- MRT0–∞ [2, 4]: 198.8 (139.0, 284.3)^a min
- Vdarea/F·fm (apparent volume of distribution of metabolite, terminal phase) [2, 4]: 75.1 (45.7, 123)^a L/kg
- Vss/F·fm (apparent steady-state volume of distribution of metabolite) [2, 4]: 83.5 (61.6, 112.9)^a L/kg
- t1/2λz (apparent elimination half-life) [2, 4]: 129.3 (74.1, 225.6)^a min
- λz (apparent elimination rate constant) [2, 4]: 0.0054 (0.0031, 0.0094)^a 1/min
- Tmax [2, 4]: 38 (30, 100)^a min
- AUCt [2, 4]: 67548 (53591, 85140)^b min·nmol/L
- Cmax ([2]; 60 olives group: single oral 7.70 g destoned olives/kg (hydroxytyrosol 5.89 mg/kg), n = 7, listed as hydroxytyrosol sulfate M1-b): 548 nM
- Vss/F·fm and Vdarea/F·fm [2, 5]: ~90 L/kg
- half-life (t1/2λz) [2, 5]: approximately 2 h
- mean residence time (MRT0–∞) [2, 5]: around 3 h
- percentage of the AUC of each compound divided by the AUC of the sum of all of them [2]: approximately 73%

Substance: hydroxytyrosol sulfate [M1-a]
- AUC0–∞ ([2]; 30 olives group (3.85 g olives/kg, hydroxytyrosol 2.95 mg/kg oral), listed as hydroxytyrosol sulfate M1-a): 4765 (3491, 6504)^a min·nmol/L
- Cmax/D [2, 6]: 0.00899 (0.00522, 0.01546)^a
- AUC0–∞/D [2, 6]: 0.90 (0.68, 1.23)^a
- AUCt/D [2, 6]: 0.82 (0.60, 1.11)^a
- Cl/F·fm (apparent clearance of metabolite) [2, 6]: 4.02 (2.95, 5.48)^a L/min/kg
- MRT0–∞ [2, 6]: 173 (121.9, 245.5)^a min
- Vdarea/F·fm (apparent volume of distribution of metabolite, terminal phase) [2, 6]: 491 (190, 1264)^a L/kg
- Vss/F·fm (apparent steady-state volume of distribution of metabolite) [2, 6]: 616 (339, 1120)^a L/kg
- t1/2λz (apparent elimination half-life) [2, 6]: 130.1 (64.5, 262.2)^a min
- λz (apparent elimination rate constant) [2, 6]: 0.0053 (0.0026, 0.011)^a 1/min
- Tmax [2, 6]: 45.5 (30, 120)^a min
- AUCt [2, 6]: 4321 (3152, 5924)^a min·nmol/L
- Cmax ([2]; 30 olives group: single oral 3.85 g destoned olives/kg (hydroxytyrosol 2.95 mg/kg), n = 6, listed as hydroxytyrosol sulfate M1-a): 47.3 nM
- AUC0–∞ ([2]; 60 olives group (7.70 g olives/kg, hydroxytyrosol 5.89 mg/kg oral), listed as hydroxytyrosol sulfate M1-a): 13133 (9812, 17577)^b min·nmol/L
- Cmax/D [2, 7]: 0.00872 (0.00562, 0.01354)^a
- AUC0–∞/D [2, 7]: 1.18 (0.84, 1.64)^a
- AUCt/D [2, 7]: 1.02 (0.75, 1.38)^a
- Cl/F·fm (apparent clearance of metabolite) [2, 7]: 2.91 (2.17, 3,89)^a L/min/kg
- MRT0–∞ [2, 7]: 188.3 (143.6, 246,9)^a min
- Vdarea/F·fm (apparent volume of distribution of metabolite, terminal phase) [2, 7]: 479 (290, 790)^a L/kg
- Vss/F·fm (apparent steady-state volume of distribution of metabolite) [2, 7]: 548 (380, 789)^a L/kg
- t1/2λz (apparent elimination half-life) [2, 7]: 129.4 (83.0, 201.6)^a min
- λz (apparent elimination rate constant) [2, 7]: 0.0054 (0.0034, 0.0083)^a 1/min
- Tmax [2, 7]: 36 (30, 42)^a min
- AUCt [2, 7]: 11376 (8674, 14919)^b min·nmol/L
- Cmax ([2]; 60 olives group: single oral 7.70 g destoned olives/kg (hydroxytyrosol 5.89 mg/kg), n = 7, listed as hydroxytyrosol sulfate M1-a): 97.3 nM
- AUC ratio of metabolite versus parent hydroxytyrosol (AUC0–∞m/AUC0–∞) [2, 5]: around 1.5
- Vss/F·fm and Vdarea/F·fm [2, 5]: approximately 500 L/kg
- half-life (t1/2λz) [2, 5]: approximately 2 h
- mean residence time (MRT0–∞) [2, 5]: around 3 h
- percentage of the AUC of each compound divided by the AUC of the sum of all of them [2]: 12%
